Measured values reported in patent US5501957A, “Method for measuring glycosyltransferase activity” (priority 1994, dated 1996).
Several values for one entry are separate records, joined by “and”; a condition that tells them apart may be missing. Identical values can stand only once. Entries after “also recorded” stand apart in the source; their conditions may differ. Like-named read-outs stand apart in the source and are kept apart here.

What was measured:
[1] = system: core 2 GlcNAc-T
[2] = system: cAMP-dependent protein kinases; conditions: cell-free assays; Hidaka et al, 1984; cited from earlier work
[3] = system: CHO cells; assay: Proliferation (doubling time) of CHO cells in the presence of differentiation agents; format: cell-based, Chinese hamster
[4] = 2 hour incubation, lysates from control or butyrate+cholera toxin-treated cells
[5] = system: core 2 GlcNAc-T; conditions: CHO and MDAY-D2 cell lysates; Yousefi et al (1991); cited from earlier work
[6] = system: core 2 GlcNAc-T; assay: Substrate Km for core 2 GlcNAc-T found in CHO and MDAY-D2 cell lysates; format: biochemical, Chinese hamster; murine
[7] = target: T1, core 2 GlcNAc-T (Cricetulus griseus, UniProt A0A9J7GWB2); assay: Kinetic analysis of core 2 GlcNAc-T activity in CHO cell lysates; format: biochemical, Chinese hamster; conditions: butyrate+cholera toxin-treated versus untreated CHO cells
T1 construct: The lysates were adjusted to 8-12 μg/μl protein with lysis solution and used as the source of transferases; endogenous in cells; host or cells: CHO cells (untreated or treated with differentiating agents), detergent lysate; in A6 freeze-thawed cells, pelleted membranes
T1 sequence (A0A9J7GWB2 1-428): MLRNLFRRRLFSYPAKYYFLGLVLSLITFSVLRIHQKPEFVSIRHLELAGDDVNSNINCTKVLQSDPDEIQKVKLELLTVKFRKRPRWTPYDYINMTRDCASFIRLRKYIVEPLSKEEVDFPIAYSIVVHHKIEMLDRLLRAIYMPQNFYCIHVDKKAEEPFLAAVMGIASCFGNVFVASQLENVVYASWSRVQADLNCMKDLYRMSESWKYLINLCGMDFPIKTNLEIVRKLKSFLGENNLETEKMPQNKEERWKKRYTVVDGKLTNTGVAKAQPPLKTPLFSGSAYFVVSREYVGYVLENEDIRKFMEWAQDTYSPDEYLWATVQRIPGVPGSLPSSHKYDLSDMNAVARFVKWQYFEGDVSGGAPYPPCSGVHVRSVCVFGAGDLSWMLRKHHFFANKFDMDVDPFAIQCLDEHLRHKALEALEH

[8] = system: CHO cells; assay: Cell morphology of CHO cells; format: cell-based, Chinese hamster
[9] = system: β1-3Gal-T
[10] = system: Ca^++ -dependent protein kinases; conditions: cell-free assays; Hidaka et al, 1984; cited from earlier work
[11] = system: cAMP; format: cell-based, Chinese hamster
[12] = system: bovine β1-4Gal-T; assay: Kinetics of the β1-4Gal-T reaction; format: biochemical; conditions: 1 mU Gal-T, 5 min at 30° C.
[13] = system: core 2 GlcNAc-T; format: biochemical, Chinese hamster
[14] = in vitro; conditions: hamster, cho cells
[15] = 1 μM actinomycin D, 5 μg/ml cycloheximide, 50 μM kinase inhibitors

CCCC(=O)Nc1ncnc2c1ncn2[C@@H]1O[C@@H]2COP(=O)(O)O[C@H]2[C@H]1OC(=O)CCC [dibutyryl cAMP]
effect on core 2 GlcNAc-T activity in CHO cells (in words) [1]: failed to induce enzyme activity

CNCCNS(=O)(=O)c1cccc2cnccc12 [H-8]
effect on induction of core 2 GlcNAc-T activity by butyrate (in words) [1, 15]: blocked induction of core 2 GlcNAc-T activity
IC50 [2]: 1 to 10 µM

CCCCCCCCCCCCCC(=O)O[C@@H]1[C@@H](C)[C@@]2(O)[C@@H](C=C(CO)C[C@]3(O)C(=O)C(C)=C[C@@H]23)[C@@H]2C(C)(C)[C@]12OC(C)=O [TPA, phorbol 12-myristate 13-acetate]
effect on core 2 GlcNAc-T activity in CHO cells (in words) ([1]; listed as PMA): Neither cholera toxin alone, retinoic acid, DMSO nor PMA had any effect on core 2 GlcNAc-T activity
Doubling Time [3]: 13 h

Nc1ncnc2c1nc(Br)n2[C@@H]1O[C@@H]2COP(=O)(O)O[C@H]2[C@H]1O [8-bromo-cAMP]
effect on core 2 GlcNAc-T activity in CHO cells (in words) [1]: failed to induce enzyme activity

CC(=O)N[C@H]1[C@@H](OP(=O)(O)OP(=O)(O)OC[C@H]2O[C@@H](n3ccc(=O)[nH]c3=O)[C@H](O)[C@@H]2O)O[C@H](CO)[C@@H](O)[C@@H]1O [UDP-GlcNAc]
UDP-GlcNAc remaining intact [4]: 93-95%
Km [5]: 500 µM
fold by which substrate Km for β1-4Gal-T is lower than for core 2 GlcNAc-T [6]: 7 fold

NC(N)=NCCNS(=O)(=O)c1cccc2cnccc12 [H-1004]
effect on induction of core 2 GlcNAc-T activity by butyrate (in words) [1]: had no effect

CC(=O)N[C@H]1[C@@H](Oc2ccc([N+](=O)[O-])cc2)O[C@H](CO)[C@H](O)[C@@H]1O[C@@H]1O[C@H](CO)[C@H](O)[C@H](O)[C@H]1O [Galβ1-3GalNAcα-pNp]
Km [5]: 300 µM
fold by which substrate Km for β1-4Gal-T is lower than for core 2 GlcNAc-T [6]: 5 fold
change in Km for the synthetic acceptor (in words) [7]: no changes in Km

C[S+](C)[O-] [DMSO, dimethylsulfoxide]
changes in cell morphology (in words) [8]: changes in cell morphology
changes in cell morphology (in words) ([8]; listed as dimethylsulfoxide): induced changes in cell morphology
Core 2 GlcNAc-T activity ([1]; 24 h treatment): 9.6 pmol/mg/h
Core 2 GlcNAc-T activity ([1]; 48 h treatment): 11.2 pmol/mg/h
Core 2 GlcNAc-T activity ([1]; 72 h treatment): 9.5 pmol/mg/h
Doubling Time [3]: 25 to 27 h
effect on cell proliferation (in words) [3]: reductions in cell growth rates
Doubling Time ([3]; average slopes of growth curves over 72 hours): 25 h
effect on cell proliferation (in words) ([3]; listed as dimethylsulfoxide): slowed cell proliferation
B-1 Gal-T activity ([9]; 24 h treatment): 9.1 nmoles/m/h
B-1 Gal-T activity ([9]; 48 h treatment): 8.1 nmoles/m/h
B-1 Gal-T activity ([9]; 72 h treatment): 5.6 nmoles/m/h

CC1CNCCN1S(=O)(=O)c1cccc2cnccc12 (centres unmarked) [H-7]
effect on induction of core 2 GlcNAc-T activity by butyrate (in words) [1, 15]: blocked induction of core 2 GlcNAc-T activity
IC50 [10]: 1 to 10 µM

cholera toxin
changes in cell morphology (in words) [8]: induced changes in cell morphology
additional increase in core 2 GlcNAc-T activity in butyrate-treated cells [1]: 2 fold
effect on core 2 GlcNAc-T activity of butyrate-treated cells (in words) [1]: enhanced both cytosolic cAMP concentrations and core 2 GlcNAc-T activity compared to butyrate-treatment alone
enhancement of core 2 GlcNAc-T activity in butyrate-treated cells [1]: 80%
effect on cell proliferation (in words) [3]: reductions in cell growth rates; also recorded: slowed cell proliferation
effect on intracellular/cytosolic cAMP levels (in words) [11]: enhanced both cytosolic cAMP concentrations and core 2 GlcNAc-T activity compared to butyrate-treatment alone

CC1=C(/C=C/C(C)=C/C=C/C(C)=C/C(=O)O)C(C)(C)CCC1 [RA, all-trans-retinoic acid]
effect on core 2 GlcNAc-T activity in CHO cells (in words) [1]: had no effect on activity
effect on core 2 GlcNAc-T activity in CHO cells (in words) ([1]; listed as retinoic acid): Neither cholera toxin alone, retinoic acid, DMSO nor PMA had any effect on core 2 GlcNAc-T activity
Doubling Time [3]: 13 h

COC(=O)CCCCCCCCO[C@@H]1O[C@H](CO[C@H]2O[C@H](CO)[C@@H](O)[C@H](O)[C@@H]2O[C@@H]2O[C@H](CO)[C@@H](O)[C@H](O)[C@H]2NC(C)=O)[C@@H](O)[C@H](O)[C@@H]1O [GlcNAcβ1-2Manα1-6Manβ--O--(CH2)8 --COOCH3]
Km [12]: 45 µM

CCCC(=O)[O-].[Na+] [butyrate, sodium butyrate]
changes in cell morphology (in words) [8]: induced changes in cell morphology
effect on core 2 GlcNAc-T activity in CHO cells (in words) [1]: only butyrate induced core 2 GlcNAc-T activity
second peak of core 2 GlcNAc-T activity, higher than the 24 hours peak [1]: approximately 45%
time of first peak (maximum) of core 2 GlcNAc-T activity [1]: 24 h
time of second peak of core 2 GlcNAc-T activity [1]: 84 h
core 2 GlcNAc-T activity greater than controls ([1]; cho cells, 2000 µM): 10-20 times
fold increase in core 2 GlcNAc-T activity ([1]; cho cells, 24 h): 16 fold
Doubling Time [3]: 25 to 27 h and 24 h
effect on cell proliferation (in words) [3]: reductions in cell growth rates; also recorded: slowed cell proliferation
core 2 GlcNAc-T activity, kinase + [13]: 264.9
core 2 GlcNAc-T activity, kinase - [13]: 267.4
increase in β1-3 Gal-T activity ([9]; cho cells, 24 h, 2000 µM): approximately 2 fold
increase in β1-3Gal-T activity ([9]; cho cells, 24 h, 2000 µM): 2-3 times
delay of core 2 GlcNAc-T peaks after peaks in cytosolic cAMP [11]: 8 to 12 h
effect on intracellular/cytosolic cAMP levels (in words) [11]: butyrate treatment increases intracellular cAMP levels; also recorded: elevated cytosolic cAMP levels
time by which cAMP elevation preceded induction of core 2 GlcNAc-T activity [11]: approximately 8 h
time of first peak of cAMP [11]: 12 h
time of second peak of cAMP [11]: 72 h
viability at 2000 µM [14]: 90 to 95%
